Assay results published in patent publication US7754692B2, “Arginyl-glutamine dipeptide for treatment of pathological vascular proliferation” (University of Florida Research Foundation, Inc., priority 2003, dated 2010).
Peptide text beside a SMILES is read from it.

Columns and labels:
[1] = system: vascular endothelial growth factor (VEGF); test: Retinal cell culture model, vascular endothelial growth factor (VEGF); assay type: cell-based
retinal cell culture = test: Retinal cell culture model, transepithelial resistance (TER); assay type: cell-based
[2] = system: pre-retinal neovascularization; test: Neonatal mouse hyperoxia model of retinopathy of prematurity, counting pre-retinal neovascularization on stained sections; assay type: in vivo, mice
Procedure: Neonatal mice were exposed to a period of hyperoxia to induce retinal angiogenesis that mimics retinopathy of prematurity. An Arginyl-glutamine dipeptide was administered intraperitoneally twice daily during the period when neovascularization occurs in this model, days 12 through 17.
On day 17 the animals are sacrificed and degree of angiogenesis was quantified by counting pre-retinal neovascularization on stained sections from treated and untreated animals.

N=C(N)NCCC[C@H](N)C(=O)N[C@@H](CCC(N)=O)C(=O)O [argininyl-glutamine, arginyl-glutamine] (H-Arg-Gln-OH)
vascular endothelial growth factor (VEGF) [1]: decreased
transepithelial resistance (TER) (retinal cell culture): increased
reduction in preretinal neovascularization ([2]; neonatal mice after hyperoxia, intraperitoneally twice daily days 12 through 17, read on day 17, combined data from two experiments (FIG. 1)): 80%
nuclei (associated with retinopathy) compared to the vehicle ([2]; repeat experiment with different doses of the dipeptide after oxygen stress challenge, FIG. 2): clear decrease
